Laboratory results taken from ChEMBL document CHEMBL4270604, “Hedgehog pathway inhibitors of the acylthiourea and acylguanidine class show antitumor activity on colon cancer in vitro and in vivo” (Eur J Med Chem, 2018).

Assays:
CYP1A2 [1] = target: T1, CYP1A2 (Homo sapiens, UniProt P05177); assay: Inhibition of recombinant human CYP1A2 expressed in insect cell microsomes at 1 uM using Luciferin-ME as substrate preincubated for 10 mins followed by NADPH addition measured after 30 mins by luminometric method; type: ADME; settings: probe Luciferin-ME
T1 sequence (P05177 whole entry): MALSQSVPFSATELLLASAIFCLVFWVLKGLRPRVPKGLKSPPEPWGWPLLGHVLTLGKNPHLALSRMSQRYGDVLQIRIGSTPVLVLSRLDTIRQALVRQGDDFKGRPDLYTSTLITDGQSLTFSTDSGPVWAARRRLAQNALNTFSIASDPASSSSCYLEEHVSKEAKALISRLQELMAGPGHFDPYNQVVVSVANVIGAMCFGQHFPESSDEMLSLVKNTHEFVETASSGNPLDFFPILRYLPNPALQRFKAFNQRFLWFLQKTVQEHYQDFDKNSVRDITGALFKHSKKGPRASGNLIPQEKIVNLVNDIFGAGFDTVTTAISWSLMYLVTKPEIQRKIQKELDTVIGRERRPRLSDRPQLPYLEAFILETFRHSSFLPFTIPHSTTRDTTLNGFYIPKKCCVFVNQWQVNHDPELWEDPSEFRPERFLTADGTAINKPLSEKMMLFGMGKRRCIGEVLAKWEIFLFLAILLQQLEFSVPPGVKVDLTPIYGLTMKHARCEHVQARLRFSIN

CYP2D6 [2] = target: T2, CYP2D6 (Homo sapiens, UniProt P10635); assay: Inhibition of recombinant human CYP2D6 expressed in insect cell microsomes at 1 uM using Luciferin-ME EGE as substrate preincubated for 30 mins followed by NADPH addition measured after 45 mins by luminometric method; type: ADME; settings: probe Luciferin-ME EGE
T2 sequence (P10635 whole entry): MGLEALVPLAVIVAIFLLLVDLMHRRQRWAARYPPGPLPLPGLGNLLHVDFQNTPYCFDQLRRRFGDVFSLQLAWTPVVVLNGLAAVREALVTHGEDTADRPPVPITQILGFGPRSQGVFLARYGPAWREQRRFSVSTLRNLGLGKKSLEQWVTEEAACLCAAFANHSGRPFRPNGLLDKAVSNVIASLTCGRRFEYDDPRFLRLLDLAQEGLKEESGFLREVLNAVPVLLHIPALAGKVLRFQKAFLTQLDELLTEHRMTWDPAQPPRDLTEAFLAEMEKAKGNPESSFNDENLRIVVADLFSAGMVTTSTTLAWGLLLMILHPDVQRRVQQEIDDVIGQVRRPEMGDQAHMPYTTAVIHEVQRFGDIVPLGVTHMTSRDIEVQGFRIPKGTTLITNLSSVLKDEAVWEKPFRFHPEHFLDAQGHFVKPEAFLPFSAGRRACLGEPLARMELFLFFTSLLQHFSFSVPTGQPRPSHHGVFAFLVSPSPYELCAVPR

CYP2C9 [3] = target: T3, CYP2C9 (Homo sapiens, UniProt P11712); assay: Inhibition of recombinant human CYP2C9 expressed in insect cell microsomes at 1 uM using Luciferin-H as substrate preincubated for 30 mins followed by NADPH addition measured after 30 mins by luminometric method; type: ADME; settings: probe Luciferin-H
T3 sequence (P11712 whole entry): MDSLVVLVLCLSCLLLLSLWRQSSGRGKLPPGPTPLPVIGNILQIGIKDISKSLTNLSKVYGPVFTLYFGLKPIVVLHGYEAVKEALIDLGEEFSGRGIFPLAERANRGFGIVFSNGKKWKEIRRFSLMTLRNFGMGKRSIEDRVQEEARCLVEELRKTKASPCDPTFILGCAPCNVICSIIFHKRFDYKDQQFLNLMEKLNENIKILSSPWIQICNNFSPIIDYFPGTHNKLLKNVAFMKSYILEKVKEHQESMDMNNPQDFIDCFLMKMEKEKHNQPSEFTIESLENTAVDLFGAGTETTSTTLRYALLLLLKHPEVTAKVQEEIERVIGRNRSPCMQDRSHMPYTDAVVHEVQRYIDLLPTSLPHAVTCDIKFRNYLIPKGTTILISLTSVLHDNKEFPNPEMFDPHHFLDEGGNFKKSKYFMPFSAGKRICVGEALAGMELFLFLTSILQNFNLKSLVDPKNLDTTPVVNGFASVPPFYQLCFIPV

[4] = target: T4, Coelenterazine h 2-monooxygenase (Renilla reniformis, UniProt P27652); assay: Effect on Renilla reniformis luciferase; type: ADME
T4 sequence (P27652 whole entry): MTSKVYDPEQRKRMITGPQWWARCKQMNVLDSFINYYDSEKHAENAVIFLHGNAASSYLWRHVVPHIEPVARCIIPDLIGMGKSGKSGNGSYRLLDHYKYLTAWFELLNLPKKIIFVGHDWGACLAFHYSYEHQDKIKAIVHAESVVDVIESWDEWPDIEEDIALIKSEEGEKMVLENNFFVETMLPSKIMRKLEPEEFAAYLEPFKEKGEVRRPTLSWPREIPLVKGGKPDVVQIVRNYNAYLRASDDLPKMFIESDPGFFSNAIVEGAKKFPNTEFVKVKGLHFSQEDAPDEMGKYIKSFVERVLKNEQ

[5] = Terminal half life in CD1 mouse at 200 mg/kg, po administered as single dose by HPLC-MS/MS analysis; type: ADME, organism-based; settings: in vivo, read-out: beta t1/2 (converted)
CYP2C19 [6] = target: T5, CYP2C19 (Homo sapiens, UniProt P33261); assay: Inhibition of recombinant human CYP2C19 expressed in insect cell microsomes at 5 uM using Luciferin-H EGE as substrate preincubated for 20 mins followed by NADPH addition measured after 30 mins by luminometric method; type: ADME; settings: probe Luciferin-H EGE
T5 sequence (P33261 whole entry): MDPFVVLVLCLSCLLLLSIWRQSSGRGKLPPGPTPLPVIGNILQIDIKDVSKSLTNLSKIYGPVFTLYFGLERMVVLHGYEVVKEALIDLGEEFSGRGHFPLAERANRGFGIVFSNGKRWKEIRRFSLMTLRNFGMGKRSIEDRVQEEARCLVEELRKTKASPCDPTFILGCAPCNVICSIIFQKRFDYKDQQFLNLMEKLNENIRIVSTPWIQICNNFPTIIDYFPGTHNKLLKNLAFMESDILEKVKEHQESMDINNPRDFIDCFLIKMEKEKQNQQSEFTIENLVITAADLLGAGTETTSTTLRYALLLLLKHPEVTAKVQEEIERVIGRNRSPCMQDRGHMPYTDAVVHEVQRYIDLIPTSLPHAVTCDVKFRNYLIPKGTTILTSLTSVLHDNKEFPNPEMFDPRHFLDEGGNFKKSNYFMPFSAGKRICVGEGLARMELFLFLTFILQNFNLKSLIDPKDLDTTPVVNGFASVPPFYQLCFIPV

in vitro [7] = settings: human, Caco-2
Description: Apparent permeability of the compound from apical to basolateral side in human Caco2 cells after 120 mins by LC-MS/MS analysis

[8] = Inhibition of hedgehog signaling pathway in mouse Light2 cells stimulated with 100 nM SAG after 30 hrs by Gli-firefly luciferase reporter gene assay
Mus musculus [9] = species on record: Mus musculus; assay: as above
CYP1A2 [10] = target: T1, CYP1A2; assay: Inhibition of recombinant human CYP1A2 expressed in insect cell microsomes at 10 uM using Luciferin-ME as substrate preincubated for 10 mins followed by NADPH addition measured after 30 mins by luminometric method; type: ADME; settings: probe Luciferin-ME
CYP3A4 = CYP3A4 (Homo sapiens, UniProt P08684); assay: Inhibition of recombinant human CYP3A4 expressed in insect cell microsomes at 5 uM using Luciferin-IPA as substrate preincubated for 10 mins followed by NADPH addition measured after 10 mins by luminometric method; type: ADME; settings: probe Luciferin-IPA
Sequence of CYP3A4 (P08684 whole entry): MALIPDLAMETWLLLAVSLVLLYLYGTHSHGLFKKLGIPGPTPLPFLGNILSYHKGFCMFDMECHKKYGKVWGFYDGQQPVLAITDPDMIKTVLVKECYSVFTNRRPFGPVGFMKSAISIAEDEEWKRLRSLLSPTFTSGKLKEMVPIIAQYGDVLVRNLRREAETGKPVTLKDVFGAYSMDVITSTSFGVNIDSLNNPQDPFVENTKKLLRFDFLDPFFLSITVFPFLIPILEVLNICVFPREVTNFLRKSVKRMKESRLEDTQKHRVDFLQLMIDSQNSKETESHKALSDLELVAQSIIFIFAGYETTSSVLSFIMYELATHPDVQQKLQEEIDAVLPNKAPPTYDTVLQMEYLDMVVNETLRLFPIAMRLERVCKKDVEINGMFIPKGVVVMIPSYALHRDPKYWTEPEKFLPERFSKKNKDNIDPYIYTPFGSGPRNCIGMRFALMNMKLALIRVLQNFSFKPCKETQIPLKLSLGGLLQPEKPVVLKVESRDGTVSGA

[11] = Apparent clearance in CD1 mouse at 200 mg/kg, po administered as single dose by HPLC-MS/MS analysis; type: ADME, organism-based; settings: in vivo
Mus musculus [12] = assay: Clast in CD1 mouse at 200 mg/kg, po administered as single dose by HPLC-MS/MS analysis; type: ADME, organism-based; settings: in vivo
[13] = Tmax in CD1 mouse at 200 mg/kg, po administered as single dose by HPLC-MS/MS analysis; type: ADME, organism-based; settings: in vivo
CYP2D6 [14] = target: T2, CYP2D6; assay: Inhibition of recombinant human CYP2D6 expressed in insect cell microsomes at 5 uM using Luciferin-ME EGE as substrate preincubated for 30 mins followed by NADPH addition measured after 45 mins by luminometric method; type: ADME; settings: probe Luciferin-ME EGE
Cytochrome P450 3A4 = Cytochrome P450 3A4 (Homo sapiens, UniProt P08684); assay: Inhibition of recombinant human CYP3A4 expressed in insect cell microsomes using Luciferin-IPA as substrate preincubated for 10 mins followed by NADPH addition measured after 10 mins by luminometric method; type: ADME; settings: recombinant enzyme
Sequence of Cytochrome P450 3A4 (P08684 whole entry): as above

CYP2C19 [15] = target: T5, CYP2C19; assay: Inhibition of recombinant human CYP2C19 expressed in insect cell microsomes at 10 uM using Luciferin-H EGE as substrate preincubated for 20 mins followed by NADPH addition measured after 30 mins by luminometric method; type: ADME; settings: probe Luciferin-H EGE
in vitro [16] = settings: human, Caco-2; remark: listed apart in the source
Description: Efflux ratio of apparent permeability from basolateral to apical over apical to basolateral side in human Caco2 cells after 120 mins by LC-MS/MS analysis

CYP2C19 [17] = target: T5, CYP2C19; assay: Inhibition of recombinant human CYP2C19 expressed in insect cell microsomes at 1 uM using Luciferin-H EGE as substrate preincubated for 20 mins followed by NADPH addition measured after 30 mins by luminometric method; type: ADME; settings: probe Luciferin-H EGE
CYP2D6 [18] = target: T2, CYP2D6; assay: Inhibition of recombinant human CYP2D6 expressed in insect cell microsomes at 10 uM using Luciferin-ME EGE as substrate preincubated for 30 mins followed by NADPH addition measured after 45 mins by luminometric method; type: ADME; settings: probe Luciferin-ME EGE
in vitro [19] = settings: human, Caco-2; remark: listed apart in the source
Description: Apparent permeability of the compound from apical to basolateral side in human Caco2 cells assessed as drug recovery after 120 mins by LC-MS/MS analysis

Cytochrome P450 1A2 = target: T6, Cytochrome P450 1A2 (Homo sapiens, UniProt P05177); assay: Inhibition of recombinant human CYP1A2 expressed in insect cell microsomes using Luciferin-ME as substrate preincubated for 10 mins followed by NADPH addition measured after 30 mins by luminometric method; type: ADME; settings: recombinant enzyme, 0.5 h
T6 sequence (P05177 whole entry): T1 sequence (P05177 whole entry)

CYP2C9 [20] = target: T3, CYP2C9; assay: Inhibition of recombinant human CYP2C9 expressed in insect cell microsomes at 10 uM using Luciferin-H as substrate preincubated for 30 mins followed by NADPH addition measured after 30 mins by luminometric method; type: ADME; settings: probe Luciferin-H
HT-1080 = assay: Antiproliferative activity against human HT1080 cells after 72 hrs by sulforhodamine-B assay; type: functional, cell-based; settings: for IC50: HT-1080, 72 h
[21] = AUC (infinity) in CD1 mouse at 200 mg/kg, po administered as single dose by HPLC-MS/MS analysis; type: ADME, organism-based; parameters: dose 200 mg/kg, route oral, time infinity; settings: in vivo

| SMILES | inhibition at 0.5 h, 1 µM (CYP1A2 [1]) | inhibition at 0.75 h, 1 µM (CYP2D6 [2]) | inhibition at 0.5 h, 1 µM (CYP2C9 [3]) | Activity [4] | half-life [5] | inhibition at 0.5 h, 5 µM (CYP2C19 [6]) | Papp A→B at 2 h (in vitro [7]) | IC50 [8] | inhibition (Mus musculus [9]) | inhibition at 0.5 h, 10 µM (CYP1A2 [10]) | inhibition at 10 min, 5 µM (CYP3A4) | CL/F [11] | Clast (Mus musculus [12]) | Tmax [13] | inhibition at 0.75 h, 5 µM (CYP2D6 [14]) | inhibition (INH) (Cytochrome P450 3A4) | inhibition at 0.5 h, 10 µM (CYP2C19 [15]) | efflux ratio at 2 h (in vitro [16]) | inhibition at 0.5 h, 1 µM (CYP2C19 [17]) | inhibition at 0.75 h, 10 µM (CYP2D6 [18]) | other results |
| --- | --- | --- | --- | --- | --- | --- | --- | --- | --- | --- | --- | --- | --- | --- | --- | --- | --- | --- | --- | --- | --- |
| COc1cc(C(=O)NC(=N)Nc2ccc(C)c(NC(=O)c3ccc(CCc4ccccc4)cc3)c2)cc(OC)c1OC.Cl | 29% | 15% | 68% | Not Active | 2.5 h | 81% | 0.701 ×10⁻⁶ cm/s | 20 nM | Dose-dependent effect | 40% | 89% | 24.3 mL/min/kg | 50.7 ng/mL | 4 h | 12% | Dose-dependent effect | 83% | 1.05 | 67% | 11% | recovery at 2 h (in vitro [19]): 41.1%; inhibition (INH) (Cytochrome P450 1A2): Dose-dependent effect; inhibition at 0.5 h, 10 µM (CYP2C9 [20]): 83%; Activity (HT-1080): Dose-dependent effect; IC50 (HT-1080): 2000 nM; AUC(0-inf) [21]: 137 µg·h/mL |
| COc1cc(C(=O)NC(=N)Nc2ccc(C)c(NC(=O)c3ccc(-c4ccc(F)cc4)cc3)c2)cc(OC)c1OC.Cl | 46% | 20% | 63% | Not Active | 2.6 h | 76% | 0.366 ×10⁻⁶ cm/s | 50 nM | Dose-dependent effect | 59% | 78% | 14.9 mL/min/kg | 90.7 ng/mL | 1 h | 25% | Dose-dependent effect | 76% | 1.01 | 59% | 21% | recovery at 2 h (in vitro [19]): 33%; inhibition (INH) (Cytochrome P450 1A2): Dose-dependent effect; inhibition at 0.5 h, 10 µM (CYP2C9 [20]): 79%; Activity (HT-1080): Dose-dependent effect; IC50 (HT-1080): 20000 nM; AUC(0-inf) [21]: 224 µg·h/mL |
| COc1cc(C(=O)NC(=N)Nc2ccc(C)c(NC(=O)c3ccc(-c4ccccc4)cc3)c2)cc(OC)c1OC.Cl | 49% | 19% | 43% | Not Active | 2.4 h | 79% | 0.428 ×10⁻⁶ cm/s | 70 nM | Dose-dependent effect | 64% | 76% | 14 mL/min/kg | 74.2 ng/mL | 2 h | 29% | Dose-dependent effect | 81% | 1.52 | 57% | 23% | recovery at 2 h (in vitro [19]): 16.5%; inhibition (INH) (Cytochrome P450 1A2): Dose-dependent effect; inhibition at 0.5 h, 10 µM (CYP2C9 [20]): 74%; Activity (HT-1080): Dose-dependent effect; IC50 (HT-1080): 29000 nM; AUC(0-inf) [21]: 237 µg·h/mL |
